These results are taken from US20260305610A1, “TRIAZOLE COMPOUND, AND PREPARATION METHOD THEREFOR, HERBICIDAL COMPOSITION AND USE THEREOF” (QINGDAO KINGAGROOT CHEMICAL COMPOUND CO., LTD., priority 2023, published 2026).

One data set deals with major crops. Put plainly: Pre-emergence test experiment (crops). The note with it: 30 g a.i./ha. Also noted: key: 9: completely dead; 8: growth control rate is greater than or equal to 90% and less than 100%; 7: growth control rate is greater than or equal to 80% and less than 90%; 6: growth control rate is greater than or equal to 70% and less than 80%; growth control rate is greater than or equal to 50% and less than 70%; 4: growth control rate is greater than or equal to 30% and less than 50%; growth control rate is greater than or equal to 20% and less than 30%; growth control rate is greater than or equal to 10% and less than 20%; growth control rate is less than 10%; 0: no effect. It is filed as in vivo.

Data set [1] has as its system monocotyledonous and dicotyledonous weeds. Briefly: Pre-emergence test experiment (weeds). Type of data set: in vivo. Also on record: key: 9: completely dead; 8: growth control rate is greater than or equal to 90% and less than 100%; 7: growth control rate is greater than or equal to 80% and less than 90%; 6: growth control rate is greater than or equal to 70% and less than 80%; growth control rate is greater than or equal to 50% and less than 70%; 4: growth control rate is greater than or equal to 30% and less than 50%; growth control rate is greater than or equal to 20% and less than 30%; growth control rate is greater than or equal to 10% and less than 20%; growth control rate is less than 10%; 0: no effect. The note with it: 30 g a.i./ha.

In the case of `CCc1ccc(-n2cnc(C(F)F)n2)nc1Oc1cncc(C(F)(F)F)c1` [Compound 74], in the data set with major crops, the “Pre-emergence plant damage level (growth control rate) on Corn” value (from here on “Pre-emergence plant damage level … on Corn”) stood at 0, the “Pre-emergence plant damage level (growth control rate) on Cotton” value (“Pre-emergence plant damage level … on Cotton” below) is reported as 0 and the “Pre-emergence plant damage level (growth control rate) on Soybean” value (“Pre-emergence plant damage level … on Soybean” for short) worked out at 0. For the same molecule, in data set [1], the “Pre-emergence activity level (growth control rate) on Amaranthus retroflexus” value came to 9; the “Pre-emergence activity level (growth control rate) on Descurainia sophia” value is given as 9; the “Pre-emergence activity level (growth control rate) on Digitaria sanguinalis” value was 9; the “Pre-emergence activity level (growth control rate) on Setaria viridis” value was 8 (growth control rate is greater than or equal to 90% and less than 100%). In data set [1], the “Pre-emergence activity level (growth control rate) on Solanum nigrum” value was found to be 9 and the “Pre-emergence activity level (growth control rate) on Veronica” value (shortened to “Pre-emergence activity level … on Veronica”) came out at 9.

Regarding `Cc1ccc(-n2cnc(C(F)(F)F)n2)nc1Oc1ccc(F)c(OC(F)F)c1` [Compound 75], in the data set on major crops, the “Pre-emergence plant damage level … on Corn” value came out at 0, the “Pre-emergence plant damage level … on Cotton” value was 0 and the “Pre-emergence plant damage level … on Soybean” value is 0. In addition, in data set [1], the “Pre-emergence activity level (growth control rate) on Amaranthus retroflexus” value was 9, the “Pre-emergence activity level (growth control rate) on Descurainia sophia” value is 9, the “Pre-emergence activity level (growth control rate) on Digitaria sanguinalis” value is 9 and the “Pre-emergence activity level (growth control rate) on Setaria viridis” value is 9. In data set [1], the “Pre-emergence activity level (growth control rate) on Solanum nigrum” value was 9 and the “Pre-emergence activity level … on Veronica” value came to 9.

Turning to `COc1cc(Oc2ccc(F)c(C(F)(F)F)c2)nc(-n2cnc(C(F)(F)F)n2)c1` [Compound 76], in the data set on major crops, the “Pre-emergence plant damage level … on Corn” value was 0, the “Pre-emergence plant damage level … on Cotton” value turned out to be 0 and the “Pre-emergence plant damage level … on Soybean” value is 0. Also, in data set [1], the “Pre-emergence activity level (growth control rate) on Amaranthus retroflexus” value was determined as 9; the “Pre-emergence activity level (growth control rate) on Descurainia sophia” value is 9; the “Pre-emergence activity level (growth control rate) on Digitaria sanguinalis” value was determined as 9; the “Pre-emergence activity level (growth control rate) on Setaria viridis” value is 8 (growth control rate is greater than or equal to 90% and less than 100%). Further, in data set [1], the “Pre-emergence activity level (growth control rate) on Solanum nigrum” value was found to be 9 and the “Pre-emergence activity level … on Veronica” value is listed as 9.

On to `COCc1ccc(-n2cnc(C(F)(F)C(F)(F)F)n2)nc1Oc1cccc(OC(F)(F)F)c1` [Compound 77], for which, in the data set with major crops, the “Pre-emergence plant damage level … on Corn” value is reported as 0, the “Pre-emergence plant damage level … on Cotton” value is reported as 0 and the “Pre-emergence plant damage level … on Soybean” value came to 0. In data set [1], the “Pre-emergence activity level (growth control rate) on Amaranthus retroflexus” value turned out to be 9; the “Pre-emergence activity level (growth control rate) on Descurainia sophia” value came out at 9; the “Pre-emergence activity level (growth control rate) on Digitaria sanguinalis” value was 8 (growth control rate is greater than or equal to 90% and less than 100%); the “Pre-emergence activity level (growth control rate) on Setaria viridis” value is 8 (growth control rate is greater than or equal to 90% and less than 100%). In data set [1], the “Pre-emergence activity level (growth control rate) on Solanum nigrum” value was 7 (growth control rate is greater than or equal to 80% and less than 90%); the “Pre-emergence activity level … on Veronica” value amounted to 9.

As for `COc1cc(Oc2cccc(OC(F)(F)F)c2)nc(-n2cnc(C(F)(F)F)n2)c1` [Compound 78], in the data set with major crops, the “Pre-emergence plant damage level … on Corn” value amounted to 0, the “Pre-emergence plant damage level … on Cotton” value is listed as 0 and the “Pre-emergence plant damage level … on Soybean” value stood at 0. Also, in data set [1], the “Pre-emergence activity level (growth control rate) on Amaranthus retroflexus” value was 9; the “Pre-emergence activity level (growth control rate) on Descurainia sophia” value turned out to be 9; the “Pre-emergence activity level (growth control rate) on Digitaria sanguinalis” value worked out at 9; the “Pre-emergence activity level (growth control rate) on Setaria viridis” value is 8 (growth control rate is greater than or equal to 90% and less than 100%). In addition, in data set [1], the “Pre-emergence activity level (growth control rate) on Solanum nigrum” value is 8 (growth control rate is greater than or equal to 90% and less than 100%); the “Pre-emergence activity level … on Veronica” value is 9.

As for `Cc1ccc(-n2cnc(C(F)F)n2)nc1Oc1cccc(OC(F)F)c1` [Compound 79], in the data set with major crops, the “Pre-emergence plant damage level … on Corn” value amounted to 0, the “Pre-emergence plant damage level … on Cotton” value is listed as 0 and the “Pre-emergence plant damage level … on Soybean” value is recorded as 0. Besides, in data set [1], the “Pre-emergence activity level (growth control rate) on Amaranthus retroflexus” value was determined as 9, the “Pre-emergence activity level (growth control rate) on Descurainia sophia” value turned out to be 9, the “Pre-emergence activity level (growth control rate) on Digitaria sanguinalis” value is given as 9 and the “Pre-emergence activity level (growth control rate) on Setaria viridis” value is reported as 9. In data set [1], the “Pre-emergence activity level (growth control rate) on Solanum nigrum” value was 8 (growth control rate is greater than or equal to 90% and less than 100%); the “Pre-emergence activity level … on Veronica” value is on record as 9.

In the case of `Cc1ccc(-n2cnc(C(F)F)n2)nc1Oc1ccc(F)c(OC(F)(F)F)c1` [Compound 80], in the data set with major crops, the “Pre-emergence plant damage level … on Corn” value was 0, the “Pre-emergence plant damage level … on Cotton” value is given as 0 and the “Pre-emergence plant damage level … on Soybean” value was 0. Further, in data set [1], the “Pre-emergence activity level (growth control rate) on Amaranthus retroflexus” value was found to be 9; the “Pre-emergence activity level (growth control rate) on Descurainia sophia” value is 9; the “Pre-emergence activity level (growth control rate) on Digitaria sanguinalis” value is reported as 9; the “Pre-emergence activity level (growth control rate) on Setaria viridis” value is 8 (growth control rate is greater than or equal to 90% and less than 100%). For the same molecule, in data set [1], the “Pre-emergence activity level (growth control rate) on Solanum nigrum” value is 9 and the “Pre-emergence activity level … on Veronica” value is reported as 9.

Turning to `Cc1ccc(-n2cnc(C(F)F)n2)nc1Oc1cccc(OC(F)(F)F)c1` [Compound 83], in the data set on major crops, the “Pre-emergence plant damage level … on Corn” value is 0, the “Pre-emergence plant damage level … on Cotton” value is listed as 0 and the “Pre-emergence plant damage level … on Soybean” value is reported as 0. Further, in data set [1], the “Pre-emergence activity level (growth control rate) on Amaranthus retroflexus” value is listed as 9, the “Pre-emergence activity level (growth control rate) on Descurainia sophia” value is given as 9, the “Pre-emergence activity level (growth control rate) on Digitaria sanguinalis” value is recorded as 9 and the “Pre-emergence activity level (growth control rate) on Setaria viridis” value is given as 9. For the same molecule, in data set [1], the “Pre-emergence activity level (growth control rate) on Solanum nigrum” value stood at 9 and the “Pre-emergence activity level … on Veronica” value was determined as 9.

With `Cc1ccc(-n2cnc(C(F)F)n2)nc1Oc1cccc(C(F)F)c1` [Compound 84], in the data set on major crops, the “Pre-emergence plant damage level … on Corn” value is on record as 0, the “Pre-emergence plant damage level … on Cotton” value is recorded as 0 and the “Pre-emergence plant damage level … on Soybean” value was found to be 0. Further, in data set [1], the “Pre-emergence activity level (growth control rate) on Amaranthus retroflexus” value came to 9, the “Pre-emergence activity level (growth control rate) on Descurainia sophia” value is given as 9, the “Pre-emergence activity level (growth control rate) on Digitaria sanguinalis” value is given as 9 and the “Pre-emergence activity level (growth control rate) on Setaria viridis” value stood at 9. Besides, in data set [1], the “Pre-emergence activity level (growth control rate) on Solanum nigrum” value came out at 9 and the “Pre-emergence activity level … on Veronica” value is 9.

For `CCc1ccc(-n2cnc(C(F)(F)F)n2)nc1Oc1cccc(CF)c1` [Compound 85], in the data set on major crops, the “Pre-emergence plant damage level … on Corn” value was determined as 0, the “Pre-emergence plant damage level … on Cotton” value amounted to 0 and the “Pre-emergence plant damage level … on Soybean” value is given as 0. In addition, in data set [1], the “Pre-emergence activity level (growth control rate) on Amaranthus retroflexus” value is recorded as 9 and the “Pre-emergence activity level … on Veronica” value was 9.
